Measured values as given in patent US7108865B2, “Controlled-release dosage forms of azithromycin” (Pfizer Inc, priority 1994, dated 2006).
Like-named read-outs stand apart in the source and are kept apart here.

Assay: Serum azithromycin pharmacokinetics after 2 g oral capsule dose, single vs divided (Example 1)
Format: in vivo
Details: male, human, mean; for AUC(0-t): read-out: AUC0–144
Experimental: In a double-blind, randomized, placebo-controlled parallel group study, healthy male subjects were divided into three groups. Group A received a single 2 g azithromycin dose as eight 250 mg azithromycin capsules (“bolus dosing” group). Group B received the same total dose, administered as eight 250 mg capsules at the rate of one 250 mg capsule each 30 minutes for 3.5 hr (“divided dosing” group). Group C received matching placebo capsules. All subjects received eight capsules of drug or placebo at time 0, and a capsule of drug or placebo every half-hour for 3.5 hr. All subjects were dosed after an overnight fast. […] Tmax is the time at which Cmax is achieved.

[1] = 250 mg capsule per half-hr for 3.5 hr (2 g total), oral, fasted
[2] = 2 g single oral dose as eight 250 mg capsules, fasted

**Q.** What does the source list for CC[C@H]1OC(=O)[C@H](C)[C@@H](O[C@H]2C[C@@](C)(OC)[C@@H](O)[C@H](C)O2)[C@H](C)[C@@H](O[C@@H]2O[C@H](C)C[C@H](N(C)C)[C@H]2O)[C@](C)(O)C[C@@H](C)CN(C)[C@H](C)[C@@H](O)[C@]1(C)O [azithromycin, 9a-aza-9a-methyl-9-deoxo-9a-homoerythromycin A]?
**A.** Cmax [1]: 1130 ng/mL; Tmax [1]: 4.4 h; AUC(0-t) [1]: 18900 ng·h/mL; Cmax (2 g single oral dose as eight 250 mg capsules, fasted healthy male subjects): 1690 ng/mL; Tmax [2]: 1.3 h; AUC(0-t) [2]: 18800 ng·h/mL
